Laboratory results from patent publication US12410171B2, “Tropomyosin receptor kinase (TRK) degradation compounds and methods of use” (Cullgen (Shanghai), Inc., priority 2020, dated 2025).
Where two headings read alike, the source gives them in different places.

Assays:
TPM3-TRKA fusion protein = target: T1, TPM3-TRKA fusion protein (Homo sapiens, UniProt P04629); experiment: TPM3-TRKA fusion protein levels in KM12 cells (Western blot); assay type: cell-based; conditions: read-out: Degradation (at 10 nM)
T1 construct: The resulted chimeric proteins always retain the kinase domain of TRK proteins; TPM3 (fusion partner, N-terminal part of tropomyosin alpha-3, P06753); endogenous in cells; host or cells: KM12 colon cancer cells; the other entry of the earlier key: TPM3 (P06753, Tropomyosin alpha-3 chain)
Procedure, shortened: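 KM12 colon cancer cells were treated with DMSO or compounds at 0.1–100 nM, 0.4–30 nM or other stated concentrations for 4, 8–16 or 16 h. RIPA lysates were BCA-normalized and resolved by SDS-PAGE. TPM3-TRKA was detected by chemiluminescent Western blot, with bands quantified by densitometry.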

KM12 cells = experiment: KM12 cell viability (CellTiter-Glo); assay type: cell-based; conditions: Homo sapiens, 72 h; KM12 cell viability, CellTiter-Glo, three days treatment; read-out: IC50
Procedure, shortened: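 KM12 cells seeded at 5000 per well in RPMI 1640 + 10% FBS and exposed 3 days to serial dilutions (11-point 3-fold, 8-point 3-fold from 1000 nM, or 12-point 2-fold). Viability by CellTiter-Glo; IC50 from least-squares nonlinear regression.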

[1] = 16 h, TPM3-TRKA degradation in KM12 cells at 10 nM compound, category of percentage degradation

T1 sequence (P04629 with tags, fused parts or gaps): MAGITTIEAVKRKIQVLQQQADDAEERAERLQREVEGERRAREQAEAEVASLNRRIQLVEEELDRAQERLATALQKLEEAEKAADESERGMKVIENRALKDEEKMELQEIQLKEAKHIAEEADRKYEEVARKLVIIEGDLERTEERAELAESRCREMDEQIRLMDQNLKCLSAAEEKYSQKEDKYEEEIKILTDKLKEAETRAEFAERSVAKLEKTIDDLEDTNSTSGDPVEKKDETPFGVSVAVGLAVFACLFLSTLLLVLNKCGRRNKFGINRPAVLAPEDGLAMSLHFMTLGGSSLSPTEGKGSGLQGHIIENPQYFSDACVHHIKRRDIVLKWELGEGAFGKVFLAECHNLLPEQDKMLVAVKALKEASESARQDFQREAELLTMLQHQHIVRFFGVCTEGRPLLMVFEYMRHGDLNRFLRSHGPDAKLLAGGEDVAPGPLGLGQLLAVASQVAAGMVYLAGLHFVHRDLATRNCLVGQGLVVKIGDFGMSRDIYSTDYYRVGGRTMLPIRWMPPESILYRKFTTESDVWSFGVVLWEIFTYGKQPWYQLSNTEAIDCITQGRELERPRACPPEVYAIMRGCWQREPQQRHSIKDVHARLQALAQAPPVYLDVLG

percent degradation of TPM3-TRKA protein at 0.01 µM (TPM3-TRKA fusion protein; [1]) [%]	Structure (SMILES)	IC50 (KM12 cells) [µM]	percent degradation of TPM3-TRKA protein at 0.01 µM (TPM3-TRKA fusion protein; KM12, 16 h) [%]
> 80	O=C1CCC(N2C(=O)c3ccc(N4CCOC(CN5CCN(c6ccc(C(=O)Nc7n[nH]c8ccc(Cc9cc(F)cc(F)c9)cc78)c(NC7CCOCC7)c6)CC5)C4)cc3C2=O)C(=O)N1 (centres unmarked) [TR-282, N-(5-(3,5-difluorobenzyl)-1H-indazol-3-yl)-4-(4-((4-(2-(2,6-dioxopiperidin-3-yl)-1,3-dioxoisoindolin-5-yl)morpholin-2-yl)methyl)piperazin-1-yl)-2-((tetrahydro-2H-pyran-4-yl)amino)benzamide]	0.0063	
> 80	O=C1CCC(N2C(=O)c3ccc(C#CCN4CCN(c5ccc(C(=O)Nc6n[nH]c7ccc(Cc8cc(F)cc(F)c8)cc67)c(NC6CCOCC6)c5)CC4)cc3C2=O)C(=O)N1 (centres unmarked) [TR-283, N-(5-(3,5-Difluorobenzyl)-1H-indazol-3-yl)-4-(4-(3-(2-(2,6-dioxopiperidin-3-yl)-1,3-dioxoisoindolin-5-yl)prop-2-yn-1-yl)piperazin-1-yl)-2-((tetrahydro-28-pyran-4-yl)amino)benzamide]	0.054	
> 80	O=C1CCC(N2C(=O)c3ccc(N4CCC(N5CCN(c6ccc(C(=O)Nc7n[nH]c8ccc(Cc9cc(F)cc(F)c9)cc78)c(NC7CCOCC7)c6)CC5)C4)cc3C2=O)C(=O)N1 (centres unmarked) [TR-284, N-(5-(3,5-difluorobenzyl)-1H-indazol-3-yl)-4-(4-(1-(2-(2,6-dioxopiperidin-3-yl)-1,3-dioxoisoindolin-5-yl)pyrrolidin-3-yl)piperazin-1-yl)-2-((tetrahydro-2H-pyran-4-yl)amino)benzamide]	0.005	
> 80	O=C1CCC(N2C(=O)c3ccc(CN4CCC(N5CCN(c6ccc(C(=O)Nc7n[nH]c8ccc(Cc9cc(F)cc(F)c9)cc78)c(NC7CCOCC7)c6)CC5)C4)cc3C2=O)C(=O)N1 (centres unmarked) [TR-285, N-(5-(3,5-difluorobenzyl)-1H-indazol-3-yl)-4-(4-(1-((2-(2,6-dioxopiperidin-3-yl)-1,3-dioxoisoindolin-5-yl)methyl)pyrrolidin-3-yl)piperazin-1-yl)-2-((tetrahydro-2H-pyran-4-yl)amino)benzamide]	0.0097	
> 80	O=C1CCC(N2C(=O)c3ccc(N4CCOC(CN5CCN(c6cccc(-c7cnc8ccc(N9CCC[C@@H]9c9cccc(F)c9)nn78)n6)CC5)C4)cc3C2=O)C(=O)N1 (stereo partly drawn) [TR-286, 2-(2,6-dioxopiperidin-3-yl)-5-(2-((4-(6-(6-((R)-2-(3-fluorophenyl)pyrrolidin-1-yl)imidazo[1,2-b]pyridazin-3-yl)pyridin-2-yl)piperazin-1-yl)methyl)morpholino) isoindoline-1,3-dione]	0.0078	
> 80	O=C1CCC(N2C(=O)c3ccc(N4CC(OC5CCN(c6cccc(-c7cnc8ccc(N9CCC[C@@H]9c9cccc(F)c9)nn78)n6)CC5)C4)cc3C2=O)C(=O)N1 (stereo partly drawn) [TR-287, 2-(2,6-dioxopiperidin-3-yl)-5-(3-((1-(6-(6-((R)-2˜ (3-fluorophenyl)pyrrolidin-1-yl)imidazo[1,2-b]pyridazin-3-yl)pyridin-2-yl)piperidin-4-yl)oxy)azetidin-1-yl)isoindoline-1,3-dione]	0.0193	
	O=C1CCC(N2C(=O)c3ccc(N4CC(NC5CCN(c6cccc(-c7cnc8ccc(N9CCC[C@@H]9c9cccc(F)c9)nn78)n6)CC5)C4)cc3C2=O)C(=O)N1 (stereo partly drawn) [TR-288, 2-(2,6-dioxopiperidin-3-yl)-5-(3-((1-(6-(6-((R)-2-(3-fluorophenyl)pyrrolidin-1-yl)imidazo[1,2-b]pyridazin-3-yl)pyridin-2-yl)piperidin-4-yl)amino)azetidin-1-yl)isoindoline-1,3-dione]	0.0092	> 80
> 80	O=C1CCC(N2C(=O)c3ccc(NC4CCC(N5CCN(c6ccc(C(=O)Nc7n[nH]c8ccc(Cc9cc(F)cc(F)c9)cc78)c(NC7CCOCC7)c6)CC5)CC4)cc3C2=O)C(=O)N1 (centres unmarked) [TR-289, N-(5-(3,5-Difluorobenzyl)-1H-indazol-3-yl)-4-(4-(4-((2-(2,6-dioxopiperidin-3-yl)-1,3-dioxoisoindolin-5-yl)amino)cyclohexyl)piperazin-1-yl)-2-((tetrahydro-2H-pyran-4-yl)amino)benzamide]	0.0038	
> 80	O=C1CCC(N2C(=O)c3ccc(N4CCC5(CC(N6CCN(c7ccc(C(=O)Nc8n[nH]c9ccc(Cc%10cc(F)cc(F)c%10)cc89)c(NC8CCOCC8)c7)CC6)C5)C4)cc3C2=O)C(=O)N1 (centres unmarked) [TR-290, N-(5-(3,5-difluorobenzyl)-1H-indazol-3-yl)-4-(4-(6-(2-(2,6-dioxopiperidin-3-yl)-1,3-dioxoisoindolin-5-yl)-6-azaspiro[3.4]octan-2-yl)piperazin-1-yl)-2-((tetrahydro-2H-pyran-4-yl)amino)benzamide]	0.0112	
> 80	O=C1CCC(N2C(=O)c3ccc(C4CN(CCN5CCN(c6cccc(-c7cnc8ccc(N9CCC[C@@H]9c9cccc(F)c9)nn78)n6)CC5)C4)cc3C2=O)C(=O)N1 (stereo partly drawn) [TR-292, 2-(2,6-dioxopiperidin-3-yl)-5-(1-(2-(4-(6-(6-((R)-2-(3-fluorophenyl)pyrrolidin-1-yl)imidazo[1,2-b]pyridazin-3-yl)pyridin-2-yl)piperazin-1-yl)ethyl)azetidin-3-yl)isoindoline-1,3-dione]	0.0082	
> 80	O=C1CCC(N2C(=O)c3ccc(C4CN(CC5CCN(c6cccc(-c7cnc8ccc(N9CCC[C@@H]9c9cccc(F)c9)nn78)n6)CC5)C4)cc3C2=O)C(=O)N1 (stereo partly drawn) [TR-293, 2-(2,6-dioxopiperidin-3-yl)-5-(1-((1-(6-(6-((R)-2-(3-fluorophenyl)pyrrolidin-1-yl)imidazo[1,2-b]pyridazin-3-yl)pyridin-2-yl)piperidin-4-yl)methyl)azetidin-3-yl)isoindoline-1,3-dione]	0.0095	
> 80	O=C1CCC(N2C(=O)c3cccc(CN4CC(CN5CCN(c6cccc(-c7cnc8ccc(N9CCC[C@@H]9c9cccc(F)c9)nn78)n6)CC5)C4)c3C2=O)C(=O)N1 (stereo partly drawn) [TR-294, 2-(2,6-Dioxopiperidin-3-yl)-4-((3-((4-(6-(6-((R)-2-(3-fluorophenyl)pyrrolidin-1-yl)imidazo[1,2-b]pyridazin-3-yl)pyridin-2-yl)piperazin-1-yl)methyl)azetidin-1-yl)methyl)isoindoline-1,3-dione]	0.0125	
50 to 80	Cc1nc2cccc(N3CC(CN4CCN(c5cccc(-c6cnc7ccc(N8CCC[C@@H]8c8cccc(F)c8)nn67)n5)CC4)C3)c2c(=O)n1C1CCC(=O)NC1=O (some centres unmarked) [TR-295]	0.03	
50 to 80	O=C1CCC(n2nnc3cccc(N4CC(CN5CCN(c6cccc(-c7cnc8ccc(N9CCC[C@@H]9c9cccc(F)c9)nn78)n6)CC5)C4)c3c2=O)C(=O)N1 (some centres unmarked) [TR-296]	0.022	
50 to 80	O=C1CCC(n2nnc3cccc(N4CC(CCN5CCN(c6cccc(-c7cnc8ccc(N9CCC[C@@H]9c9cccc(F)c9)nn78)n6)CC5)C4)c3c2=O)C(=O)N1 (some centres unmarked) [TR-297]	0.039	
> 80	O=C1CCC(N2Cc3ccc(C#CCN4CCN(c5ccc(C(=O)Nc6n[nH]c7ccc(Cc8cc(F)cc(F)c8)cc67)c(NC6CCOCC6)c5)CC4)cc3C2=O)C(=O)N1 (stereo not drawn) [TR-298, N—(S-(3,5-Difluorobenzyl)-1H-indazol-3-yl)-4-(4-(3-(2-(2,6-dioxopiperidin-3-yl)-3-oxoisoindolin-5-yl)prop-2-yn-1-yl)piperazin-1-yl)-2-((tetrahydro-2/-pyran-4-yl)amino)benzamide]	0.03	
> 80	O=C1CCC(N2C(=O)c3ccc(NC4CCC(N5CCN(c6ccc(C(=O)Nc7n[nH]c8ccc(Cc9cc(F)cc(F)c9)cc78)c(NC7CCOCC7)c6)CC5)C4)cc3C2=O)C(=O)N1 (centres unmarked) [TR-299, N-(5-(3,5-Difluorobenzyl)-1H-indazol-3-yl)-4-(4-(3-((2-(2,6-dioxopiperidin-3-yl)-1,3-dioxoisoindolin-S-yl)amino)cyclopentyl)piperazin-1-yl)-2-((tetrahydro-2/-pyran-4-yl)amino)benzamide]	0.023	
50 to 80	O=C1CCC(N2Cc3cc(N4CC(CN5CCN(c6ccc(C(=O)Nc7n[nH]c8ccc(Cc9cc(F)cc(F)c9)cc78)c(NC7CCOCC7)c6)CC5)C4)ccc3C2=O)C(=O)N1 (stereo not drawn) [TR-300, N—(S-(3,5-Difluorobenzyl)-1H-indazol-3-yl)-4-(4-((1˜ (2˜ (2,6-dioxopiperidin-3-yl)-1-oxoisoindolin-5-yl)azetidin-3-yl)methyl)piperazin-1-yl)-2-((tetrahydro-2H-pyran-4-yl)amino)benzamide]	0.053	
> 80	CC(C1CN(c2ccc3c(c2)C(=O)N(C2CCC(=O)NC2=O)C3=O)C1)N1CCN(c2ccc(C(=O)Nc3n[nH]c4ccc(Cc5cc(F)cc(F)c5)cc34)c(NC3CCOCC3)c2)CC1 (centres unmarked) [TR-301, N-(5-(3,5-difluorobenzyl)-1H-indazol-3-yl)-4-(4-(1-(1-(2-(2,6-dioxopiperidin-3-yl)-1,3-dioxoisoindolin-5-yl)azetidin-3-yl)ethyl)piperazin-1-yl)-2-((tetrahydro-2H-pyran-4-yl)amino)benzamide]	0.006	
